Measured values: patent publication US9499529B2 (California State University Fresno, priority 2013, dated 2016)

How the values were obtained:
Type in all cases: cell-based, human
[1] = system: DU-145 prostate cancer cells; assay: In vitro cytotoxicity against DU-145 prostate cancer cells; details: DU-145 cells; for IC50: five days
Experimental: (§1) The half maximal inhibitory concentration (IC50) is a measure of the effectiveness of a substance in inhibiting a specific biological or biochemical function. It is commonly used as a measure of antagonist drug potency.
Cell numbers were counted with a cell viability analyzer (Beckman-Coulter).
(§2) A preliminary dose response curve was prepared from the collected data by means well known to those of ordinary skill in the art.
(§3) The six different concentrations fell within a selected linear concentration range determined by reference to the preliminary dose response curve and efforts to estimate the concentration at which 50% of the cell growth would be inhibited. The selected six different concentrations were used to further fill out the dose response curve to pinpoint a more exact IC50 value.

[2] = system: PC-3 prostate cancer cells; assay: In vitro cytotoxicity against PC-3 prostate cancer cells; details: PC-3 cells; for IC50: five days
Experimental: as §1
Cell cultures were maintained in 5% carbon dioxide at a temperature of 37° C. […] Cell numbers were counted with a cell viability analyzer (Beckman-Coulter). […] A preliminary dose response curve was prepared from the collected data by means well known to those of ordinary skill in the art.
as §3

[3] = system: HeLa cervical cancer cells; assay: HeLa cell viability after treatment with analog (cell count, cell viability analyzer)
Experimental: Cell numbers were counted with a cell viability analyzer (Beckman-Coulter). The ratio of drug treated viable cell numbers to control vehicle (DMSO) treated viable cell numbers was defined as percentage viability. […] Compound nos.
The HeLa cells used in the experiments summarized by Table 5 were cultured in RPMI-1640 medium supplemented with 10% FBS, 4 mM glutamine, 1 mM sodium pyruvate, 100 IU/mL penicillin, 100 ug/mL streptomycin and 0.25 ug/mL amphotericin. The HeLa cells were plated in 24-well plates at a density of 20,000 cells in each well in 10% FBS RPMI-1640. […] Cell numbers were counted with a cell viability analyzer (Beckman-Coulter). […]

[4] = system: HeLa cervical cancer cells; assay: In vitro cytotoxicity against HeLa cervical cancer cells; details: for IC50: three days
Experimental: as §1
Cell numbers were counted with a cell viability analyzer (Beckman-Coulter). The ratio of drug treated viable cell numbers to vehicle treated viable cell numbers was defined as percentage viability.
as §2, §3

[5] = 1 μM, three days, relative to DMSO vehicle
[6] = 10 μM, three days, relative to DMSO vehicle
[7] = Homo sapiens, HeLa, 72 h, read-out: HeLa Cell viability after treatment with analog (% viability)

Row | SMILES | IC50 [1] | IC50 (curcumin)/IC50 (analog) [2] | IC50 [2] | HeLa Cell viability after treatment with analog (% viability) [3, 5] | HeLa Cell viability after treatment with analog (% viability) [3, 6] | IC50 (curcumin)/IC50 (analog) [1] | IC50 (curcumin)/IC50 (analog) [4] | IC50 [4] | HeLa Cell viability after treatment with analog (% viability) ([3]; 10 µM) | viability at 1 µM [3, 7] | viability at 10 µM [3, 7]
1 | CC(C)n1ccnc1C=C1CN(C)CC(=Cc2nccn2C(C)C)C1=O [Compound 1] | 0.14 µM | 18 | 0.11 µM | 126.94% | 118.5% |  |  |  |  |  | 
2 | CCC(C)n1ccnc1C=C1CN(C)CC(=Cc2nccn2C(C)CC)C1=O (stereo not shown) [Compound 2] | 0.01 µM |  | 6.63 µM | 111.1% | 95.9% |  |  |  |  |  | 
3 | CN1CC(=Cc2cnn(C)c2)C(=O)C(=Cc2cnn(C)c2)C1 [Compound 3] | 1870 µM | 0.03 | 76 µM | 100.9% | 97.8% | 0.0002 |  |  |  |  | 
4 | CN1CC(=Cc2ccnn2C)C(=O)C(=Cc2ccnn2C)C1 [Compound 4] | 1.64 µM | 1.9 | 1.02 µM | 107.1% | 67.4% | 0.18 |  |  |  |  | 
5 | CN1CC(=Cc2nccs2)C(=O)C(=Cc2nccs2)C1 [Compound 5] | 0.046 µM | 4.7 | 0.42 µM | 51.7% | 21.6% |  |  |  |  |  | 
6 | CN1CC(=Cc2cscn2)C(=O)C(=Cc2cscn2)C1 [Compound 6] | 0.43 µM | 2.5 | 0.8 µM | 72.0% | 12.0% | 0.7 | 13 | 0.817 µM |  |  | 
7 | Cc1nc(C=C2CN(C)CC(=Cc3coc(C)n3)C2=O)co1 [Compound 7] | 0.076 µM | 6.4 | 0.31 µM | 59.5% | 59.5% |  |  |  |  |  | 
8 | Cc1cc(/C=C2\CCC/C(=C\c3cc(C)on3)C2=O)no1 [Compound 8, (2E,6E)-2,6-Bis((5-methylisoxazol-3-yl)methylene)cyclohexanone] | 0.034 µM |  | 0.14 µM |  |  |  |  | 0.205 µM | 12.8% |  | 
9 | Cc1cc(C=C2CN(C)CC(=Cc3cc(C)no3)C2=O)on1 [Compound 9] | 0.69 µM |  | 0.13 µM | 75.3% | 27.8% | 0.4 |  |  |  |  | 
10 | CC(C)n1ccnc1C=C1CCCC(=Cc2nccn2C(C)C)C1=O [Compound 10] | 0.1 µM |  | 0.16 µM | 114.9% | 85.1% |  |  |  |  |  | 
11 | CCC(C)n1ccnc1C=C1CCCC(=Cc2nccn2C(C)CC)C1=O (stereo not shown) [Compound 11] | 0.25 µM | 2 | 0.83 µM | 100% | 100% |  |  |  |  |  | 
12 | CC(C)Cn1ccnc1C=C1CCCC(=Cc2nccn2CC(C)C)C1=O [Compound 12] | 0.36 µM | 4.2 | 0.47 µM | 100% | 94.5% | 0.8 |  |  |  |  | 
13 | Cn1cc(C=C2CCCC(=Cc3cnn(C)c3)C2=O)cn1 [Compound 13] | 90 µM | 0.015 | 130 µM | 97% | 100% | 0.003 |  |  |  |  | 
14 | Cn1nccc1C=C1CCCC(=Cc2ccnn2C)C1=O [Compound 14] | 0.73 µM | 7.6 | 0.26 µM | 88% | 71.4% | 0.41 |  |  |  |  | 
15 | O=C1C(=Cc2nccs2)CCCC1=Cc1nccs1 [Compound 15] | 0.12 µM | 18 | 0.11 µM | 78% | 9.7% |  |  |  |  |  | 
16 | O=C1C(=Cc2cscn2)CCCC1=Cc1cscn1 [Compound 16] | 0.075 µM | 16.5 | 0.12 µM | 79% | 15.8% |  |  |  |  |  | 
17 | Cc1nc(C=C2CCCC(=Cc3coc(C)n3)C2=O)co1 [Compound 17] | 1.65 µM | 1 | 1.97 µM | 100% | 59.5% | 0.18 |  |  |  |  | 
18 | Cc1cc(/C=C2\CCC/C(=C\c3cc(C)on3)C2=O)no1 [Compound 18, (2E,6E)-2,6-Bis((5-methylisoxazol-3-yl)methylene)cyclohexanone] | 0.07 µM |  | 0.071 µM |  |  |  | 19 | 0.552 µM |  | 32% | 15.9%
19 | Cc1cc(C=C2CCCC(=Cc3cc(C)no3)C2=O)on1 [Compound 19] | 0.34 µM |  | 0.054 µM | 95% | 15.9% | 0.9 |  |  |  |  | 

Row | SMILES | IC50 [1] | IC50 (curcumin)/IC50 (analog) [2] | IC50 [2] | HeLa Cell viability after treatment with analog (% viability) [3, 5] | HeLa Cell viability after treatment with analog (% viability) [3, 6] | IC50 (curcumin)/IC50 (analog) [1] | IC50 (curcumin)/IC50 (analog) [4] | IC50 [4] | HeLa Cell viability after treatment with analog (% viability) ([3]; 10 µM) | viability at 1 µM [3, 7] | viability at 10 µM [3, 7]
20 | CC(C)n1ccnc1/C=C/C(=O)/C=C/c1nccn1C(C)C [Compound 20] | 0.054 µM |  | 0.089 µM | 35% | 11.4% |  | 25 | 0.418 µM |  |  | 
21 | Cn1nccc1/C=C/C(=O)/C=C/c1ccnn1C [Compound 23] | 0.16 µM |  | 1.9 µM | 59% | 82.6% |  |  |  |  |  | 
22 | O=C(/C=C/c1nccs1)/C=C/c1nccs1 [Compound 24] | 0.055 µM |  | 0.068 µM | 68% | 19.2% |  |  |  |  |  | 
23 | O=C(/C=C/c1cscn1)/C=C/c1cscn1 [Compound 25] | 0.096 µM |  | 0.094 µM | 89% | 13.7% |  |  |  |  |  | 
24 | Cc1nc(/C=C/C(=O)/C=C/c2coc(C)n2)co1 [Compound 26] | 0.75 µM | 2.4 | 0.84 µM | 100% | 65.9% | 0.4 |  |  |  |  | 
25 | Cc1cc(/C=C/C(=O)/C=C/c2cc(C)on2)no1 [Compound 27] | 0.042 µM | 7.9 | 0.25 µM | 48% | 15.9% |  |  | 0.296 µM |  |  | 
26 | O=C(/C=C/c1cncs1)/C=C/c1cncs1 [Compound 29] |  |  |  | 77% |  |  |  |  |  |  | 
27 | Cc1noc(C)c1/C=C/C(=O)/C=C/c1c(C)noc1C [Compound 30] |  |  |  | 67% |  |  |  |  |  |  | 
28 | Cc1csc(/C=C/C(=O)/C=C/c2nc(C)cs2)n1 [Compound 31] |  |  |  | 52% |  |  |  |  |  |  | 
29 | CCC(CC)n1ccnc1/C=C/C(=O)/C=C/c1nccn1C(CC)CC [Compound 32] |  |  |  | 3.4% |  |  |  | 0.25 µM |  |  | 
30 | CC(C)CCn1ccnc1/C=C/C(=O)/C=C/c1nccn1CCC(C)C [Compound 33] |  |  |  | 3.0% |  |  |  | 0.23 µM |  |  | 
31 | CCCC(C)n1ccnc1/C=C/C(=O)/C=C/c1nccn1C(C)CCC (stereo not shown) [Compound 34] |  |  |  | 7.7% |  |  |  | 0.15 µM |  |  | 
32 | CCCCCCn1ccnc1/C=C/C(=O)/C=C/c1nccn1CCCCCC [Compound 35] |  |  |  | 6.1% |  |  | 18 | 0.59 µM |  |  | 
33 | O=C(/C=C/c1ccncc1F)/C=C/c1ccncc1F [Compound 36] |  |  |  | 25.6% |  |  |  |  |  |  | 
34 | O=C(/C=C/c1cocn1)/C=C/c1cocn1 [Compound 37] |  |  |  | 72.9% |  |  |  |  |  |  | 
35 | Cn1cc(/C=C/C(=O)/C=C/c2cnn(C)c2)cn1 [Compound 38] |  |  |  | 92.8% |  |  |  |  |  |  | 
36 | CC(C)Cn1c(/C=C/C(=O)/C=C/c2nc3ccccc3n2CC(C)C)nc2ccccc21 [Compound 41] |  |  |  | 5.72% |  |  |  | 0.321 µM |  |  | 
37 | CCC(CC)n1c(/C=C/C(=O)/C=C/c2nc3ccccc3n2C(CC)CC)nc2ccccc21 [Compound 45] |  |  |  |  |  |  | 15 | 0.696 µM |  |  | 
